The experiment has as its target T1, BRM (Homo sapiens, UniProt P51531).
T1 construct: Western Blot Screen of BRM Degradation in SW1573 Cells; endogenous in cells; host or cells: SW1573 cells
Description: BRM degradation (Dmax and DC50) in SW1573 cells, Western blot screen / In-Cell Western screen. It counts as cell-based. To be noted: overnight (18-20 hours) treatment; for Dmax: read-out: Dmax (%)** (% degraded). Put shortly: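 SW1573 cells were treated with compound for 18–20 h (final 0.1% DMSO). BRM was quantified either by Western blot of RIPA lysates or by fixed-cell In-Cell Western (LI-COR, 800/680 nm), each normalised to alpha-tubulin, giving Dmax and DC50.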

Molecules are shown by their SMILES. Where only a bound is given, the exact number is not on record here.

T1 sequence (P51531 whole entry): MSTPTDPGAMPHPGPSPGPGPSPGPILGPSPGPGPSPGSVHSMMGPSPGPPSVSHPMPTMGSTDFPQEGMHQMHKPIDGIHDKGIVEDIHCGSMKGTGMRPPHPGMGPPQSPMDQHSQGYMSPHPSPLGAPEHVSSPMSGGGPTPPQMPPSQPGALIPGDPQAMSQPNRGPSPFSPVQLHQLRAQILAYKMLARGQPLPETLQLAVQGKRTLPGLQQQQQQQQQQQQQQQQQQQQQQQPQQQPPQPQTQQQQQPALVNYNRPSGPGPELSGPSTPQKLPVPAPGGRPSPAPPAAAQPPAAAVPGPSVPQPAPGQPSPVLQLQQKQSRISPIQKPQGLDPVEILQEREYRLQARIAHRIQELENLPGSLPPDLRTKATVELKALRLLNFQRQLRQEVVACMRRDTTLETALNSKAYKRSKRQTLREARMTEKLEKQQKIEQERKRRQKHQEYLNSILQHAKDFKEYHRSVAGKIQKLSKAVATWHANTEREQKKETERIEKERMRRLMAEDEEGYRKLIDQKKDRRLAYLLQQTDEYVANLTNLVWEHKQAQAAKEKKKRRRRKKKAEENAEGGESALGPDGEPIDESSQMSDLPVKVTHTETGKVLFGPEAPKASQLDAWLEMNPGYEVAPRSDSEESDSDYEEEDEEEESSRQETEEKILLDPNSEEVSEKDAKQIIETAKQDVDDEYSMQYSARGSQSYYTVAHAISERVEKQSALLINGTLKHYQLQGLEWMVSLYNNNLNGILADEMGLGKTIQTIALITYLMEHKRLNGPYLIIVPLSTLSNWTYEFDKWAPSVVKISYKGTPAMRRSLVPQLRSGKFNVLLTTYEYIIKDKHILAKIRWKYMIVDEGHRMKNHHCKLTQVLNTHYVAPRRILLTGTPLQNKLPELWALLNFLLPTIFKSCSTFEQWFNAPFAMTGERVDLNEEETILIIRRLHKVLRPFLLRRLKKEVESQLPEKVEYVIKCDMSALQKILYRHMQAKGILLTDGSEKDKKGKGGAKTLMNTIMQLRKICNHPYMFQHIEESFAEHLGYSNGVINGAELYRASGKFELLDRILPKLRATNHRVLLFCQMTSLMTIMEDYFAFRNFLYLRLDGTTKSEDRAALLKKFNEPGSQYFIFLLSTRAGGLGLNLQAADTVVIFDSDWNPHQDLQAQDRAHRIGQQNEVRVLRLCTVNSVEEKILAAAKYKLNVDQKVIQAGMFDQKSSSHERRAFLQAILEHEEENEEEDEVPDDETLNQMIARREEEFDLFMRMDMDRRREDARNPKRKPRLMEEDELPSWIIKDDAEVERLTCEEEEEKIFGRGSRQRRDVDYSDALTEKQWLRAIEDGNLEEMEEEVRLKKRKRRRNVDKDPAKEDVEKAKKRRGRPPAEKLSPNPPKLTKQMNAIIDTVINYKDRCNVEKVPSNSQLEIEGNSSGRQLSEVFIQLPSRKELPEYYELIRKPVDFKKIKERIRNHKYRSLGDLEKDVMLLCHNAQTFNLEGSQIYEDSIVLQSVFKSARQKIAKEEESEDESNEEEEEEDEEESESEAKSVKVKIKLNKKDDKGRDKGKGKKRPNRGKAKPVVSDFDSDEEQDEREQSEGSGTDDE

Take `Cc1ncsc1-c1ccc([C@H](C)NC(=O)[C@@H]2C[C@@H](O)CN2C(=O)[C@H](c2cc(N3CCN(C(=O)[C@H]4C[C@H](Oc5cc(N6C7CCC6CN(c6cc(-c8ccccc8O)nnc6N)C7)ccn5)C4)CC3)no2)C(C)C)cc1` [Compound 118, (2S,4R)-4-hydroxy-N-[(1S)-1-[4-(4-methyl-1,3-thiazol-5-yl)phenyl]ethyl]-1-[(2S)-3-methyl-2-(3-{4-[(1r,3r)-3-[(4-{3-[3-amino-6-(2-hydroxyphenyl)pyridazin-4-yl]-3,8-diazabicyclo[3.2.1]octan-8-yl}pyridin-2-yl)oxy]cyclobutanecarbonyl]piperazin-1-yl}-1,2-oxazol-5-yl)butanoyl]pyrrolidine-2-carboxamide]: the DC50 was below 2.5 nM and the maximal degradation (Dmax) is above 75%.

`Cc1ncsc1-c1ccc([C@H](C)NC(=O)[C@@H]2C[C@@H](O)CN2C(=O)[C@@H](c2cc(N3CCC(CN4CCC5(CC4)CC(N4CCO[C@@H](CN6C7CCC6CN(c6cc(-c8ccccc8O)nnc6N)C7)C4)C5)CC3)no2)C(C)C)cc1` [Compound 119, (2S,4R)-1-[(2R)-2-{3-[4-({2-[(2R)-2-({3-[3-amino-6-(2-hydroxyphenyl)pyridazin-4-yl]-3,8-diazabicyclo[3.2.1]octan-8-yl}methyl)morpholin-4-yl]-7-azaspiro[3.5]nonan-7-yl}methyl)piperidin-1-yl]-1,2-oxazol-5-yl}-3-methylbutanoyl]-4-hydroxy-N-[(1S)-1-[4-(4-methyl-1,3-thiazol-5-yl)phenyl]ethyl]pyrrolidine-2-carboxamide]: the DC50 is below 2.5 nM and the Dmax was above 75%.

With `Cc1ncsc1-c1ccc([C@H](C)NC(=O)[C@@H]2C[C@@H](O)CN2C(=O)[C@@H](c2cc(N3CCC(CN4CCC5(CC4)CC(N4CCC(F)(F)C(CN6C7CCC6CN(c6cc(-c8ccccc8O)nnc6N)C7)C4)C5)CC3)no2)C(C)C)cc1` (stereo partly drawn) [Compound 120, (2S,4R)-1-[(2R)-2-{3-[4-({2-[3-({3-[3-amino-6-(2-hydroxyphenyl)pyridazin-4-yl]-3,8-diazabicyclo[3.2.1]octan-8-yl}methyl)-4,4-difluoropiperidin-1-yl]-7-azaspiro[3.5]nonan-7-yl}methyl)piperidin-1-yl]-1,2-oxazol-5-yl}-3-methylbutanoyl]-4-hydroxy-N-[(1S)-1-[4-(4-methyl-1,3-thiazol-5-yl)phenyl]ethyl]pyrrolidine-2-carboxamide], the DC50 is below 2.5 nM and the greatest degradation seen (Dmax) is above 75%.

On to `Cc1ncsc1-c1ccc([C@H](C)NC(=O)[C@@H]2C[C@@H](O)CN2C(=O)[C@@H](c2cc(N3CCC(CN4CCC5(CC4)CC(N4CCO[C@@H](C#CC(C)n6cc(-c7cc(-c8ccccc8O)nnc7N)cn6)C4)C5)CC3)no2)C(C)C)cc1` (stereo partly drawn) [Compound 121, (2S,4R)-1-[(2R)-2-{3-[4-({2-[(2S)-2-(3-{4-[3-amino-6-(2-hydroxyphenyl)pyridazin-4-yl]-1H-pyrazol-1-yl}but-1-yn-1-yl)morpholin-4-yl]-7-azaspiro[3.5]nonan-7-yl}methyl)piperidin-1-yl]-1,2-oxazol-5-yl}-3-methylbutanoyl]-4-hydroxy-N-[(1S)-1-[4-(4-methyl-1,3-thiazol-5-yl)phenyl]ethyl]pyrrolidine-2-carboxamide], for which the DC50 was below 2.5 nM and the Dmax is above 75%.

In the case of `Cc1ncsc1-c1ccc([C@H](C)NC(=O)[C@@H]2C[C@@H](O)CN2C(=O)[C@@H](c2cc(N3CCC(CN4CCC5(CC4)CC(N4CCN(CC6(O)CCN(c7cc(-c8ccccc8O)nnc7N)CC6)CC4)C5)CC3)no2)C(C)C)cc1` [Compound 122, (2S,4R)-1-[(2R)-2-{3-[4-({2-[4-({1-[3-amino-6-(2-hydroxyphenyl)pyridazin-4-yl]-4-hydroxypiperidin-4-yl}methyl)piperazin-1-yl]-7-azaspiro[3.5]nonan-7-yl}methyl)piperidin-1-yl]-1,2-oxazol-5-yl}-3-methylbutanoyl]-4-hydroxy-N-[(1S)-1-[4-(4-methyl-1,3-thiazol-5-yl)phenyl]ethyl]pyrrolidine-2-carboxamide], the DC50 is below 2.5 nM and the Dmax is above 75%.

Regarding `Cc1ncsc1-c1ccc([C@H](C)NC(=O)[C@@H]2C[C@@H](O)CN2C(=O)[C@@H](c2cc(N3CCN(C(=O)N4CCC(O[C@H]5C[C@H](Oc6cc(N7C8CCC7CN(c7cc(-c9ccccc9O)nnc7N)C8)ccn6)C5)CC4)CC3)no2)C(C)C)cc1` [Compound 123, (2S,4R)-4-hydroxy-N-[(1S)-1-[4-(4-methyl-1,3-thiazol-5-yl)phenyl]ethyl]-1-[(2S)-3-methyl-2-[3-(4-{4-[(1r,3r)-3-[(4-{3-[3-amino-6-(2-hydroxyphenyl)pyridazin-4-yl]-3,8-diazabicyclo[3.2.1]octan-8-yl}pyridin-2-yl)oxy]cyclobutoxy]piperidine-1-carbonyl}piperazin-1-yl)-1,2-oxazol-5-yl]butanoyl]pyrrolidine-2-carboxamide], the DC50 was below 2.5 nM and the Dmax was above 75%.

As for `Cc1ncsc1-c1ccc([C@H](C)NC(=O)[C@@H]2C[C@@H](O)CN2C(=O)[C@H](c2cc(N3CCN(C(=O)N4CCC(O[C@H]5C[C@H](Oc6cc(N7C8CCC7CN(c7cc(-c9ccccc9O)nnc7N)C8)ccn6)C5)CC4)CC3)no2)C(C)C)cc1` [Compound 124, (2S,4R)-4-hydroxy-N-[(1S)-1-[4-(4-methyl-1,3-thiazol-5-yl)phenyl]ethyl]-1-[(2R)-3-methyl-2-[3-(4-{4-[(1r,3r)-3-[(4-{3-[3-amino-6-(2-hydroxyphenyl)pyridazin-4-yl]-3,8-diazabicyclo[3.2.1]octan-8-yl}pyridin-2-yl)oxy]cyclobutoxy]piperidine-1-carbonyl}piperazin-1-yl)-1,2-oxazol-5-yl]butanoyl]pyrrolidine-2-carboxamide], the DC50 was at least 30 nM.

As to `Cc1ncsc1-c1ccc([C@H](C)NC(=O)[C@@H]2C[C@@H](O)CN2C(=O)[C@@H](c2cc(N3CCC(CN4CCC5(CC4)CC(N4CCOC6(CN(CC7C8CCC7CN(c7cc(-c9ccccc9O)nnc7N)C8)C6)C4)C5)CC3)no2)C(C)C)cc1` (stereo partly drawn) [Compound 125, (2S,4R)-1-[(2R)-2-{3-[4-({2-[2-({3-[3-amino-6-(2-hydroxyphenyl)pyridazin-4-yl]-3-azabicyclo[3.2.1]octan-8-yl}methyl)-5-oxa-2,8-diazaspiro[3.5]nonan-8-yl]-7-azaspiro[3.5]nonan-7-yl}methyl)piperidin-1-yl]-1,2-oxazol-5-yl}-3-methylbutanoyl]-4-hydroxy-N-[(1S)-1-[4-(4-methyl-1,3-thiazol-5-yl)phenyl]ethyl]pyrrolidine-2-carboxamide], the DC50 was below 2.5 nM and the greatest degradation seen (Dmax) was above 75%.

On to `Cc1ncsc1-c1ccc([C@H](C)NC(=O)[C@@H]2C[C@@H](O)CN2C(=O)[C@@H](c2cc(N3CCC(CN4CCC5(CC4)CC(N4CCOC6(CC(CN7C8CCC7CN(c7cc(-c9ccccc9O)nnc7N)C8)C6)C4)C5)CC3)no2)C(C)C)cc1` [Compound 126, (2S,4R)-1-[(2R)-2-{3-[4-({2-[2-({3-[3-amino-6-(2-hydroxyphenyl)pyridazin-4-yl]-3,8-diazabicyclo[3.2.1]octan-8-yl}methyl)-5-oxa-8-azaspiro[3.5]nonan-8-yl]-7-azaspiro[3.5]nonan-7-yl}methyl)piperidin-1-yl]-1,2-oxazol-5-yl}-3-methylbutanoyl]-4-hydroxy-N-[(1S)-1-[4-(4-methyl-1,3-thiazol-5-yl)phenyl]ethyl]pyrrolidine-2-carboxamide], for which the DC50 lay in the range of 2.5 to 10 nM and the Dmax is above 75%.

For `Cc1ncsc1-c1ccc([C@H](C)NC(=O)[C@@H]2C[C@@H](O)CN2C(=O)[C@@H](c2cc(OCCOC(=O)N3CCC(O[C@H]4C[C@H](Oc5cc(N6C7CCC6CN(c6cc(-c8ccccc8O)nnc6N)C7)ccn5)C4)CC3)no2)C(C)C)cc1` [Compound 127, 2-({5-[(2R)-1-[(2S,4R)-4-hydroxy-2-{[(1S)-1-[4-(4-methyl-1,3-thiazol-5-yl)phenyl]ethyl]carbamoyl}pyrrolidin-1-yl]-3-methyl-1-oxobutan-2-yl]-1,2-oxazol-3-yl}oxy)ethyl 4-[(1r,3r)-3-[(4-{3-[3-amino-6-(2-hydroxyphenyl)pyridazin-4-yl]-3,8-diazabicyclo[3.2.1]octan-8-yl}pyridin-2-yl)oxy]cyclobutoxy]piperidine-1-carboxylate], the DC50 is at least 30 nM.

As for `Cc1ncsc1-c1ccc([C@H](C)NC(=O)[C@@H]2C[C@@H](O)CN2C(=O)[C@@H](c2cc(N3CCC(OC(=O)N4CCC(Oc5cc(N6C7CCC6CN(c6cc(-c8ccccc8O)nnc6N)C7)ccn5)CC4)CC3)no2)C(C)C)cc1` [Compound 128, 1-(5-((R)-1-((2S,4R)-4-hydroxy-2-(((S)-1-(4-(4-methylthiazol-5-yl)phenyl)ethyl)carbamoyl)pyrrolidin-1-yl)-3-methyl-1-oxobutan-2-yl)isoxazol-3-yl)piperidin-4-yl 4-((4-(3-(3-amino-6-(2-hydroxyphenyl)pyridazin-4-yl)-3,8-diazabicyclo[3.2.1]octan-8-yl)pyridin-2-yl)oxy)piperidine-1-carboxylate], the DC50 is below 2.5 nM and the Dmax was above 75%.

As for `Cc1ncsc1-c1ccc([C@H](C)NC(=O)[C@@H]2C[C@@H](O)CN2C(=O)[C@@H](c2cc(N3CCN(C(=O)N4CC(Oc5cc(N6C7CCC6CN(c6cc(-c8ccccc8O)nnc6N)C7)ccn5)C4)CC3)no2)C(C)C)cc1` [Compound 129, (2S,4R)-1-[(2R)-2-[3-(4-{3-[(4-{3-[3-amino-6-(2-hydroxyphenyl)pyridazin-4-yl]-3,8-diazabicyclo[3.2.1]octan-8-yl}pyridin-2-yl)oxy]azetidine-1-carbonyl}piperazin-1-yl)-1,2-oxazol-5-yl]-3-methylbutanoyl]-4-hydroxy-N-[(1S)-1-[4-(4-methyl-1,3-thiazol-5-yl)phenyl]ethyl]pyrrolidine-2-carboxamide], the DC50 is 2.5 to 10 nM and the Dmax was above 75%.

The term DC50 denotes the midpoint of the concentration-degradation curve. The Dmax is the greatest extent of degradation seen.

For the origin of these results see US20250059198A1, “BRM DEGRADING COMPOUNDS AND ASSOCIATED METHODS OF USE” (Arvinas Operations, Inc., priority 2021, published 2025).
